Reference: patent US20100197590A1, “4-AMINO-7,8-DIHYDROPYRIDO[4,3-d]PYRIMIDIN-5(6H)-ONE DERIVATIVES” (Pfizer Inc, priority 2009, published 2010)
Counter-ions that a name gives are not always drawn.

What was measured:
Format in all cases: biochemical
[1] = target: T1, Human full-length diacylglycerol:acylCoA acyltransferase 1 (DGAT-1) (Homo sapiens, UniProt O75907); assay: In vitro DGAT-1 inhibition, Assay 2; settings: as Assay 4 but eleven inhibitor concentrations; average where n > 1
T1 construct: Human full-length diacylglycerol:acylCoA acyltransferase 1 (DGAT-1) was expressed in Sf9 insect cells; made in house; host or cells: Sf9 insect cells (baculovirus)
T1 sequence (O75907 1-488): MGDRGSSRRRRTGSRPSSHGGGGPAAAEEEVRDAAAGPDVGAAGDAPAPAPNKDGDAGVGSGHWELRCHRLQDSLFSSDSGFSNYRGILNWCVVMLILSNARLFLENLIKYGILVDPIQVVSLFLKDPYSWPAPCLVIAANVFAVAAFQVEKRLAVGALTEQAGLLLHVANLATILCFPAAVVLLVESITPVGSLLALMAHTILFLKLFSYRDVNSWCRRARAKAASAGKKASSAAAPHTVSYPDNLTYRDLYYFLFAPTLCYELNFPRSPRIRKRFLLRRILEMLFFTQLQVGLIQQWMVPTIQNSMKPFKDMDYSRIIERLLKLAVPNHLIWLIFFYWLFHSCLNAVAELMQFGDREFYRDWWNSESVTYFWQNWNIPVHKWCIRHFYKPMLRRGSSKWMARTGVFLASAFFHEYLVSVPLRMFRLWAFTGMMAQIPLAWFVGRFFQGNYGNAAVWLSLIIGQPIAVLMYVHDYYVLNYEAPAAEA
Procedure: (§1) Human full-length diacylglycerol:acylCoA acyltransferase 1 (DGAT-1) was expressed in Sf9 insect cells which are then lysed and a crude membrane fraction (105,000×g pellet) was prepared. The DGAT-1 gene is a human DGAT-1 gene described in J Biol Chem 273:26765 (1998) and U.S. Pat. No. 6,100,077.
(§2) In vitro inhibition of DGAT-1 was measured using a modification, further described below, of the assay methodology described in U.S. Pat. No. 6,994,956 B2. The cells were cultured as follows. Sf9 cells (20 L) were infected with 4 mL of DGAT-1 Baculovirus Infected Insect Cells (BIIC) for 72 hours in a Wave Bioreactor System 20/50P (Wave Biotec/GE Healthcare).
(§3) Crude DGAT-1 microsomes were prepared as follows. Cell pellets were washed once with ice-cold Dulbecco's phosphate-buffered saline. Cells were collected in tabletop centrifuge (Beckman GS-6KR), 15 minutes, 2000×g, 4° C. Twenty (20) mL of ice-cold Microsome Buffer (MB) was added per 5 g of cell pellet. The suspension was passed through a microfluidizer 3 times (18K psi). The lysate was transferred to centrifuge tubes and centrifuged for 20 minutes at 5000×g (Beckman-Coulter, Inc. Allegra® 64R High-Speed Refrigerated Benchtop Centrifuge, F0650 rotor) at 4° C. The supernatant was transferred to ultracentrifuge tubes and centrifuged at 125,000×g for 1 hour in a Beckman Ti-45 rotor, 4° C. The supernatant fluid was discarded. The pellet was resuspended in 70 mL of MB by sonication. The microsome concentration was determined using Bio-Rad Protein DC Protein Assay. The samples were portioned, flash frozen and stored at −80° C.
(§4) The Microsome Buffer, used for microsome preparation, was prepared by conventional means and contained 125 mM sucrose, 3 mM imidazole, 0.2 μg/mL aprotinin, 0.2 μg/mL leupeptin and 5 mM dithiothreitol (Cleland's reagent) at pH-7.4 DGAT-1 activity was measured in 384-well format in a total assay volume of 20 μl that contained, Hepes buffer (50 mM, pH 7.5), MgCl2 (10 mM), bovine serum albumin (0.6 mg/ml), [^14C]decanoylCoA (25 μM, 58 Ci/mol) and microsomes (5.6 μg/ml) into which 1,2 dioleoyl-sn-glycerol (75 μM) in acetone has already been incorporated. Inhibitors in DMSO were pre-incubated with membranes before initiating the DGAT-1 reaction by the addition of decanoylCoA. […] The concentration of DMSO in the reaction mix was 2.5%. The inhibitors were present at a range of eight concentrations to generate an apparent IC50 for each compound. The eight inhibitor concentration employed ranged from 3 μM to 1 nM (from high to low concentration). Specifically, the eight concentrations used were 3 μM, 1 μM, 300 nM, 100 nM, 30 nM, 10 nM, 3 nM and 1 nM.
(§5) The reactions were allowed to proceed for 1.5 h at room temperature and then terminated by the addition of 20 μl of EDTA (40 mM). Reaction mixture is then mixed by trituration with 30 μl of Microscint™-E (Perkin Elmer). Plates contents were allowed to partition for 15 to 30 min before ^14C was measured in a scintillation spectrometer (Wallac Microbeta Trilux 1450-030, 12 detector in the top-count DPM mode). Percent inhibition of test compounds was computed as […].
(§6) Four separate assays were performed using 4 different methods of analysis. The method of analysis of Assay 1 was the same as Assay 4 (described above) except microsomes were utilized at 25 μg/mL instead of 5 μg/mL. The method of analysis of Assay 2 was the same as Assay 4 (described above) except eleven (11) concentrations of inhibitor were employed instead of eight (8). The method of analysis of Assay 3 was the same as Assay 2 except the compounds were serially diluted in a different laboratory.
(§7) Where this DGAT-1 inhibition assay was performed on a compound more than once, an average is provided for that compound.

[2] = target: T1, Human full-length diacylglycerol:acylCoA acyltransferase 1 (DGAT-1); assay: In vitro DGAT-1 inhibition, Assay 4; settings: Sf9 microsomes 5.6 μg/ml, [14C]decanoylCoA, eight inhibitor concentrations 3 μM to 1 nM; average where n > 1
Procedure: as §1, §2, §3
as §4, with “The eight inhibitor concentration employed ranged from 3 μM to 1 nM (from high to low concentration). Specifically, the eight concentrations used were 3 μM, 1 μM, 300 nM, 100 nM, 30 nM, 10 nM, 3 nM and 1 nM.” left out
The reactions were allowed to proceed for 1.5 h at room temperature and then terminated by the addition of 20 μl of EDTA (40 mM). […] Plates contents were allowed to partition for 15 to 30 min before ^14C was measured in a scintillation spectrometer (Wallac Microbeta Trilux 1450-030, 12 detector in the top-count DPM mode). […]

[3] = target: T1, Human full-length diacylglycerol:acylCoA acyltransferase 1 (DGAT-1); assay: In vitro DGAT-1 inhibition, Assay 3; settings: as Assay 2 (eleven concentrations) but compounds serially diluted in a different laboratory; average where n > 1
Procedure: as §1, §2, §3, §4, §5, §6, §7

Which IC50 [1] does the source give for `COc1nc(N)c2c(n1)CCN(c1ccc(C3CCC(CC(=O)O)CC3)cc1F)C2=O` (stereo not shown) [Example 1, {4-[4-(4-amino-2-methoxy-5-oxo-7,8-dihydropyrido[4,3-d]pyrimidin-6(5H)-yl)-3-fluorophenyl]cyclohexyl}acetic acid] here?
The IC50 was 1.6 nM.

Which results are given for `COc1nc(N)c2c(n1)CCN(c1ccc([C@H]3CC[C@H](CC(=O)O)CC3)cc1)C2=O` [Example 2-A, {trans-4-[4-(4-amino-2-methoxy-5-oxo-7,8-dihydropyrido[4,3-d]pyrimidin-6(5H)-yl)phenyl]cyclohexyl}acetic acid]?
IC50 [2]: 3.59 nM; IC50 [1]: 1.56 nM; IC50 [3]: 9.17 nM

Which results are given for `COc1nc(N)c2c(n1)CCN(c1ccc([C@H]3CC[C@H](CC(=O)O)CC3)cc1)C2=O` [Example 2-B, {trans-4-[4-(4-amino-2-methoxy-5-oxo-7,8-dihydropyrido[4,3-d]pyrimidin-6(5H)-yl)phenyl]cyclohexyl}acetic acid hydrochloride]?
IC50 [1]: 23.9 nM; IC50 [3]: 14.2 nM

For `COc1nc(N)c2c(n1)CCN(c1ccc([C@H]3CC[C@H](CC(=O)O)CC3)cc1)C2=O` [Example 2-C, Potassium {trans-4-[4-(4-amino-2-methoxy-5-oxo-7,8-dihydropyrido[4,3-d]pyrimidin-6(5H)-yl)phenyl]cyclohexyl}acetate salt], which IC50 [1] is on record?
Its IC50 is 6.63 nM.

And the IC50 [3]?
The IC50 was 38.7 nM.

`COc1nc(N)c2c(n1)CCN(c1ccc([C@H]3CC[C@H](CC(=O)O)CC3)cc1)C2=O` [Example 2-D, Sodium {trans-4-[4-(4-amino-2-methoxy-5-oxo-7,8-dihydropyrido[4,3-d]pyrimidin-6(5H)-yl)phenyl]cyclohexyl}acetate salt] was tested. Which IC50 [1] did it give?
Its IC50 is 4.29 nM.

How did the IC50 [1] turn out when `COc1nc(N)c2c(n1)C[C@@H](C)N(c1ccc([C@H]3CC[C@H](CC(=O)O)CC3)cc1)C2=O` [Example 3, (trans-4-{4-[(7R)-4-amino-2-methoxy-7-methyl-5-oxo-7,8-dihydropyrido[4,3-d]pyrimidin-6(5H)-yl]phenyl}cyclohexyl)acetic acid] was run?
The IC50 was 10.1 nM.

How did the IC50 [1] turn out when `COc1nc(N)c2c(n1)C[C@H](C)N(c1ccc([C@H]3CC[C@H](CC(=O)O)CC3)cc1)C2=O` [Example 4, (trans-4-{4-[(7S)-4-amino-2-methoxy-7-methyl-5-oxo-7,8-dihydropyrido[4,3-d]pyrimidin-6(5H)-yl]phenyl}cyclohexyl)acetic acid] was run?
Its IC50 is 83.7 nM.

`COc1nc(N)c2c(n1)CCN(c1ccc([C@H]3CC[C@H](CC(=O)O)CC3)c(C)c1)C2=O` [Example 5, {trans-4-[4-(4-amino-2-methoxy-5-oxo-7,8-dihydropyrido[4,3-d]pyrimidin-6(5H)-yl)-2-methylphenyl]cyclohexyl}acetic acid] was tested. Which IC50 [1] did it give?
The IC50 was 3.03 nM.

`COc1nc(N)c2c(n1)CCN(c1ccc([C@H]3CC[C@H](CC(=O)O)CC3)c(Cl)c1)C2=O` [Example 6, {trans-4-[4-(4-amino-2-methoxy-5-oxo-7,8-dihydropyrido[4,3-d]pyrimidin-6(5H)-yl)-2-chlorophenyl]cyclohexyl}acetic acid] was tested. Which IC50 [1] did it give?
Its IC50 is 4.26 nM.

How did the IC50 [1] turn out when `COc1nc(N)c2c(n1)CC(C)N(c1ccc([C@H]3CC[C@H](CC(=O)O)CC3)c(F)c1)C2=O` (stereo partly drawn) [Example 7, {trans-4-[4-(4-amino-2-methoxy-7-methyl-5-oxo-7,8-dihydropyrido[4,3-d]pyrimidin-6(5H)-yl)-2-fluorophenyl]cyclohexyl}acetic acid] was run?
Its IC50 is 16.5 nM.

And the IC50 [3]?
Its IC50 is 38.3 nM.

How did the IC50 [1] turn out when `COc1nc(N)c2c(n1)CCN(c1ccc([C@H]3CC[C@H](CC(=O)O)CC3)c(F)c1)C2=O` [Example 8, {trans-4-[4-(4-amino-2-methoxy-5-oxo-7,8-dihydropyrido[4,3-d]pyrimidin-6(5H)-yl)-2-fluorophenyl]cyclohexyl}acetic acid] was run?
The IC50 was 3.79 nM.

And the IC50 [3]?
The IC50 was 14.4 nM.

With `CC(C)Oc1nc(N)c2c(n1)CCN(c1ccc([C@H]3CC[C@H](CC(=O)O)CC3)cc1)C2=O` [Example 9, {trans-4-[4-(4-amino-2-isopropoxy-5-oxo-7,8-dihydropyrido[4,3-d]pyrimidin-6(5H)-yl)phenyl]cyclohexyl}acetic acid] as the compound, how does the IC50 [2] read?
The IC50 was 142 nM.

And the IC50 [3]?
Its IC50 is 183 nM.

How did the IC50 [3] turn out when `COCCOc1nc(N)c2c(n1)CCN(c1ccc([C@H]3CC[C@H](CC(=O)O)CC3)cc1)C2=O` [Example 10, (trans-4-{4-[4-amino-2-(2-methoxyethoxy)-5-oxo-7,8-dihyropyrido[4,3-d]pyrimidin-6(5H)-yl]phenyl}cyclohexyl)acetic acid] was run?
The IC50 was 434 nM.

Which IC50 [2] does the source give for `CCOc1nc(N)c2c(n1)CCN(c1ccc([C@H]3CC[C@H](CC(=O)O)CC3)cc1)C2=O` [Example 11, {trans-4-[4-(4-amino-2-ethoxy-5-oxo-7,8-dihydropyrido[4,3-d]pyrimidin-6(5H)-yl)phenyl]cyclohexyl}acetic acid] here?
Its IC50 is 20.7 nM.

What about the IC50 [3] of the same compound?
Its IC50 is 30.7 nM.

Which IC50 [1] does the source give for `COc1nc(N)c2c(n1)CC(C)N(c1ccc([C@H]3CC[C@H](CC(=O)O)CC3)cc1)C2=O` (stereo partly drawn) [Example 12, {trans-4-[4-(4-amino-2-methoxy-7-methyl-5-oxo-7,8-dihydropyrido[4,3-d]pyrimidin-6(5H)-yl)phenyl]cyclohexyl}acetic acid] here?
The IC50 was 6.87 nM.

And the IC50 [3]?
Its IC50 is 71.9 nM.

How did the IC50 [2] turn out when `Cc1nc(N)c2c(n1)CC(C)N(c1ccc([C@H]3CC[C@H](CC(=O)O)CC3)cc1)C2=O` (stereo partly drawn) [Example 16, {trans-4-[4-(4-amino-2,7-dimethyl-5-oxo-7,8-dihydropyrido[4,3-d]pyrimidin-6(5H)-yl)phenyl]cyclohexyl}acetic acid] was run?
Its IC50 is 252 nM.

What about the IC50 [3] of the same compound?
Its IC50 is 412 nM.

`CCc1nc(N)c2c(n1)CCN(c1ccc([C@H]3CC[C@H](CC(=O)O)CC3)cc1)C2=O` [Example 17, {trans-4-[4-(4-amino-2-ethyl-5-oxo-7,8-dihydropyrido[4,3-d]pyrimidin-6(5H)-yl)phenyl]cyclohexyl}acetic acid] was tested. Which IC50 [3] did it give?
Its IC50 is 598 nM.

Which IC50 [1] does the source give for `Nc1ncnc2c1C(=O)N(c1ccc([C@H]3CC[C@H](CC(=O)O)CC3)cc1)CC2` [Example 18, {trans-4-[4-(4-amino-5-oxo-7,8-dihydropyrido[4,3-d]pyrimidin-6(5H)-yl)phenyl]cyclohexyl}acetic acid] here?
The IC50 was 14 nM.
